# Values of other authors, collected in patent publication US8431374B2, “Methods for the economical production of biofuel from biomass” (Gevo, Inc., priority 2007, dated 2013).
# What was measured:
# Klyveromyces marxianus = conditions: in binary combination (Ballesteros 2004)
# [1] = logarithm of the octanol:water partition coefficient
smiles,measurement,setting,value
"COc1cc(C=O)ccc1O [Vanillin, vanillin]",reduction in both cell growth and fermentation,Klyveromyces marxianus,90%
CCC(C)O (centres unmarked) [2-butanol],log P,[1],0.6
CC(C)O [2-propanol],Solubility in water,"20° C., given in words",miscible
CC(C)CO [isobutanol],log P,[1],0.79
CCCCCCCCO [1-octanol],solubility limit,"octanol, two-phase system (Chen, Q. 1995)",< 1100 µg/mL
